Measurements taken from patent publication US10004739B2, “Methods for treating cancer by inhibiting FGFR3/TACC3 fusion protein” (Astellas Pharma Inc., priority 2012, dated 2018).

Experiments:
[1] = system: FGFR3-TACC3_v1 (N-FLAG) fusion polypeptide; assay: In vitro kinase activity of FGFR3-TACC3_v1 (N-FLAG) fusion polypeptide (HTRF KinEASE-TK, peptide substrate); format: biochemical, human; conditions: ATP 100 μM
[2] = system: FGFR3-TACC3_v2 (N-FLAG) fusion polypeptide; assay: In vitro kinase activity of FGFR3-TACC3_v2 (N-FLAG) fusion polypeptide (HTRF KinEASE-TK, peptide substrate); format: biochemical, human; conditions: ATP 100 μM
[3] = system: FGFR3-TACC3_v3 (N-FLAG) fusion polypeptide; assay: In vitro kinase activity of FGFR3-TACC3_v3 (N-FLAG) fusion polypeptide (HTRF KinEASE-TK, peptide substrate); format: biochemical, human; conditions: ATP 100 μM
RT-112 cells = assay: Anchorage-independent proliferation of RT-112 bladder cancer cell line, spheroid plate, CellTiter-Glo; format: cell-based; conditions: Homo sapiens, RT-112, 120 h; final concentration 100 nM; Example 16: 2×10^3 cells per well, 5 days; read-out: growth inhibition rate (%), RT-112
Description: Moreover, as a positive control, a well added only with the medium was prepared. […] As a negative control, DMSO as a vehicle of the compound was added thereto at the same concentration (0.1%) at the time of adding the compound. Thereafter, the cells were cultured for 5 days at 37° C. in the presence of 5% CO2, and a reagent for cell count measurement (CellTiter-Glo™ Luminescent Cell Viability Assay; Promega Corporation) was added thereto. The resultant was stirred for 20 minutes, and the cell count was measured using a luminometer.
(§4) Moreover, the respective compounds were added such that the final concentration thereof became 100 nM, 10 nM, and 1 nM.

[4] = system: FGFR3-TACC3_v1 expression/NIH3T3 cells (tumors); assay: Anti-tumorigenic activity in nude mice bearing subcutaneous tumors; format: in vivo; conditions: 30 mg/kg orally once a day for 11 days
Excerpt: (§1) Cg-Foxn1Nu/Crlcrlj (Nu/Nu) nude mice (Charles River Laboratories, Japan) by means of subcutaneous injection performed in the back of the mice. Three days after the inoculation, AZD4547 and BGJ398 which are FGFR3-TACC3 fusion polypeptide inhibitors were started to be administered. For the test, 4 to 5 mice were assigned to each of the vehicle group and the compound group, AZD4547 and BGJ398 were suspended in a vehicle composed of 0.5% methyl cellulose (Shin-Etsu Chemical Co., Ltd.)/99.5% distilled water, and each of the compounds was orally administered at a dosage of 30 mg/kg. The administration was performed once a day for 11 days, and the body weight of mice and a tumor diameter were measured every 2 or 3 days. A tumor volume was calculated using the following formula. [Tumor volume (mm^3)]=[major axis of tumor (mm)]×[minor axis of tumor (mm)]^2×0.5

[5] = system: FGFR3-TACC3_v2 expression/NIH3T3 cells (tumors); assay: as above; format: in vivo; conditions: 30 mg/kg orally once a day for 11 days
Excerpt: as §1

[6] = system: FGFR3-TACC3_v3 expression/NIH3T3 cells (tumors); assay: as above; format: in vivo; conditions: 30 mg/kg orally once a day for 11 days
Excerpt: as §1

[7] = target: T1, FGFR3-TACC3 fusion polypeptide v1 (Homo sapiens, UniProt P22607); assay: Kinase inhibition in tumor: phosphorylated FGFR3/total FGFR3 by ELISA; format: in vivo, nude mice; conditions: 4 hours after the final administration; dosing as Example 13
T1 construct: expressed in transfected cells; host or cells: NIH3T3 cells infected with FGFR3-TACC3_v1/pMXs-puro retrovirus, inoculated into nude mice
Description: (§2) For the test, 5 mice were assigned to each of the vehicle group and the compound group, and 4 hours after the final administration, tumors were extracted by dissection. Thereafter, by using a lysis solution (Cell Lysis Buffer; Cell Signaling Technology, Inc., Phosphatase Inhibitor Cocktail; Thermo Fisher Scientific Inc., Complete; Roche, Ltd.), protein extracts of the tumors were rapidly prepared, and the total FGFR3 level and a phosphorylated FGFR3 level of the tumors were measured using an ELISA kit (R&D Systems). ELISA was performed according to the attached procedure manual, but detection was performed in a different way in which the chemiluminescence detection is conducted using a chemiluminescent reagent (BM chemiluminescence ELISA substrate; Roche, Ltd.) and a luminometer (ARVO; PerkinElmer Inc.).
(§3) A level obtained by correcting the phosphorylated FGFR3 level by using the total FGFR3 level (phosphorylated FGFR3 level/total FGFR3 level) was taken as a phosphorylation level.

FGFR3-TACC3_v2 = target: T2, FGFR3-TACC3_v2 (Homo sapiens, UniProt P22607, F384L); assay: as above; format: in vivo, nude mice; conditions: 4 hours after the final administration; dosing as Example 13
T2 construct: in order to express a full length of ORF of FGFR3-TACC3_v2 as a protein; expressed in transfected cells; host or cells: NIH3T3 cells infected with FGFR3-TACC3_v2/pMXs-puro retrovirus, inoculated into nude mice
Description: as §2, §3

FGFR3-TACC3_v3 = target: T3, FGFR3-TACC3_v3 (Homo sapiens, UniProt P22607); assay: as above; format: in vivo, nude mice; conditions: 4 hours after the final administration; dosing as Example 13
T3 construct: in order to express a full length of ORF of FGFR3-TACC3_v3 as a protein; expressed in transfected cells; host or cells: NIH3T3 cells infected with FGFR3-TACC3_v3/pMXs-puro retrovirus, inoculated into nude mice
Description: as §2, §3

[8] = system: cells expressing FGFR3-TACC3 fusion gene; conditions: reported in Science 2012; 337:1231-5; cited from earlier work
[9] = system: FGFR3-TACC3_v1 expression/NIH3T3 cells; assay: Anchorage-independent cell proliferation, spheroid plate, CellTiter-Glo; conditions: Mus musculus, NIH3T3, 96 h, read-out: growth inhibition rate (%), v1
Description: (§5) The FGFR3-TACC3_v1 expression/NIH3T3 cells were seeded in a 96-well spheroid plate (Sumilon Cell-Tight Spheroid 96U; SUMITOMO BAKELITE CO., LTD.) with D-MEM containing 10% fetal bovine serum, such that the cell count in each well became 1×10^3. Moreover, as a positive control, a well added only with the medium was prepared. […] As a negative control, DMSO as a vehicle of the compound was added thereto at the same concentration (0.1%) as set at the time of adding the compound. Thereafter, the cells were cultured for 4 days at 37° C. in the presence of 5% CO2, and a reagent for cell count measurement (CellTiter-Glo™ Luminescent Cell Viability Assay; Promega Corporation) was added thereto. The resultant was stirred for 20 minutes, and the cell count was measured using a luminometer.
as §4

[10] = system: FGFR3-TACC3_v2 expression/NIH3T3 cells; assay: as above; conditions: Mus musculus, NIH3T3, 96 h, read-out: growth inhibition rate (%), v2
Description: as §5, §4

[11] = system: FGFR3-TACC3_v3 expression/NIH3T3 cells; assay: as above; conditions: Mus musculus, NIH3T3, 96 h, read-out: growth inhibition rate (%), v3
Description: as §5, §4

| Structure (SMILES) | Inhibition against peptide substrate FGFR3-TACC3 v1 ([1]; final concentration 1 nM) [%] | Inhibition against peptide substrate FGFR3-TACC3 v1 ([1]; final concentration 10 nM) [%] | Inhibition against peptide substrate FGFR3-TACC3 v1 ([1]; final concentration 100 nM) [%] | Inhibition against peptide substrate FGFR3-TACC3 v2 ([2]; final concentration 1 nM) [%] | Inhibition against peptide substrate FGFR3-TACC3 v2 ([2]; final concentration 10 nM) [%] | Inhibition against peptide substrate FGFR3-TACC3 v2 ([2]; final concentration 100 nM) [%] | Inhibition against peptide substrate FGFR3-TACC3 v3 ([3]; final concentration 1 nM) [%] | Inhibition against peptide substrate FGFR3-TACC3 v3 ([3]; final concentration 10 nM) [%] | Inhibition against peptide substrate FGFR3-TACC3 v3 ([3]; final concentration 100 nM) [%] | inhibition at 0.1 µM (RT-112 cells) [%] | inhibition of proliferation of tumors (tumor volume) [4] [%] | inhibition of proliferation of tumors (tumor volume) [5] [%] | inhibition of growth of tumors (tumor volume) [6] [%] | reduction of tyrosine auto-phosphorylation in the tumor compared to the vehicle group [7] [%] | reduction of tyrosine auto-phosphorylation in the tumor compared to the vehicle group (FGFR3-TACC3_v2) [%] | reduction of tyrosine auto-phosphorylation in the tumor compared to the vehicle group (FGFR3-TACC3_v3) [%] | proliferation of cells expressing FGFR3-TACC3 fusion gene [8] | inhibition at 0.1 µM [9] [%] | inhibition at 0.1 µM [10] [%] | inhibition at 0.1 µM [11] [%] |
| --- | --- | --- | --- | --- | --- | --- | --- | --- | --- | --- | --- | --- | --- | --- | --- | --- | --- | --- | --- | --- |
| CCN1CCN(c2ccc(Nc3cc(N(C)C(=O)Nc4c(Cl)c(OC)cc(OC)c4Cl)ncn3)cc2)CC1 [BGJ398] | 26 | 47 | 58 | 8 | 44 | 79 | 13 | 38 | 75 | 90 | 90 | 90 | 88 | 77 | 66 | 85 | inhibited the proliferation | 92 | 90 | 87 |
| COc1cc(CCc2cc(NC(=O)c3ccc(N4C[C@@H](C)N[C@@H](C)C4)cc3)[nH]n2)cc(OC)c1 [AZD4547, N-{5-[2-(3,5-dimethoxyphenyl)ethyl]-2H-pyrazol-3-yl}-4-[(3R,5S)-3,5-dimethylpiperazin-1-yl]benzamide] | 13 | 46 | 69 | 16 | 50 | 77 | 9 | 52 | 74 | 90 | 51 | 61 | 73 | 58 | 54 | 78 | inhibited the proliferation | 74 | 60 | 51 |
